Here are results for four molecules from publication PMC9321742 (Viruses, 2022).

The subject of one data set is SARS-CoV-2 delta. Briefly: microbe, parasite or virus in culture. Type of data set: cell-based. To be noted: VERO E6, plus 0.5 µM P-gp inhibitor CP-100356, MOI 0.005, 72 h, read-out: IC50 Delta Mean ± SD.
A further data set relates to SARS-CoV-2 omicron BA.1. Briefly: microbe, parasite or virus in culture. To be noted: read-out: IC50 BA.1 Mean ± SD. It counts as cell-based.
The test system of the next data set is SARS-CoV-2 omicron BA.2. Briefly: microbe, parasite or virus in culture. Type of data set: cell-based. As to conditions: read-out: IC50 BA.2 Mean ± SD.
The next data set in a line: in vitro. As to conditions: African green monkey.
The mark [1] stands for this setting: Severe acute respiratory syndrome coronavirus 2, Vero C1008.
Where [2] appears, read: Severe acute respiratory syndrome coronavirus 2, Vero C1008, VERO E6, plus 0.5 µM P-gp inhibitor CP-100356, MOI 0.005, 72 h.

Read-outs that look alike come from different tables or passages of the source.

In the case of `O=c1nc(NO)ccn1[C@@H]1O[C@H](CO)[C@@H](O)[C@H]1O` [EIDD-1931], the IC50 was 1500 ± 700 nM in the data set on SARS-CoV-2 delta, 1000 ± 500 nM with SARS-CoV-2 omicron BA.1 and 800 ± 10 nM in the data set on SARS-CoV-2 omicron BA.2. Also, the CC50 in the data set with VERO E6 cells amounted to 43300 ± 6000 nM.

Regarding `CC(C)(C)[C@H](NC(=O)C(F)(F)F)C(=O)N1C[C@H]2[C@@H]([C@H]1C(=O)N[C@H](C#N)C[C@@H]1CCNC1=O)C2(C)C` [Nirmatrelvir], the results for the IC50 in the data set with SARS-CoV-2 delta (setting [1]), in the data set on SARS-CoV-2 omicron BA.1 (setting [2]) and with SARS-CoV-2 omicron BA.2 (setting [2]) were 60 ± 10 nM, 40 ± 20 nM and 40 ± 10 nM, respectively. For the same molecule, the CC50 with VERO E6 cells (African green monkey) turned out to be 40700 ± 4400 nM; in the data set “in vitro”, 69600 ± 1000 nM.

On to `CCC(CC)COC(=O)[C@H](C)N[P@](=O)(OC[C@H]1O[C@@](C#N)(c2ccc3c(N)ncnn23)[C@H](O)[C@@H]1O)Oc1ccccc1` [Remdesivir], for which the IC50 in the data set with SARS-CoV-2 delta (setting [1]) was found to be 110 ± 80 nM; in the data set on SARS-CoV-2 omicron BA.1 (setting [2]), 50 ± 40 nM; in the data set on SARS-CoV-2 omicron BA.2 (setting [2]) it was 80 ± 10 nM.

For CP-100356 hydrochloride, the “Decrease of cell viability” value with VERO E6 cells is listed as 20%.
